# Assay results as given in patent US20140242093A1, “METHODS AND COMPOSITIONS FOR MODULATING THE INNATE IMMUNE RESPONSE AND/OR MYOGENESIS IN A MAMMALIAN SUBJECT” (FRED HUTCHINSON CANCER RESEARCH CENTER, priority 2011, published 2014).
# System: control human primary myoblasts
# Experiment: Expression microarray of primary myoblasts transduced with lentivirus carrying DUX4-fl, DUX4-s or GFP
# Protocol: Primary human myoblasts were collected and cultured as previously described (Snider et al., 2010). Primary myoblasts were maintained at or below 70% confluency for proliferation. For differentiation, cells were allowed to reach 95-100% confluency in growth medium. Once confluency was reached, the cells were changed to differentiation medium (F10 media supplemented with 1% horse serum, 10 μg/mL insulin, and 10 μg/mL transferrin, penicillin/streptomycin) and maintained for 4 days. Human RD cells were grown in DMEM in 10% bovine calf serum (Hyclone) and penicillin/streptomycin. The primary myoblasts were transduced with lentivirus carrying DUX-fl, DUX4- or GFP (MOI=15).
# Expression microarrays were performed on the transduced cells at 24 hours after transduction as follows. […] Samples were analyzed by Illumina Human Whole Genome microarrays. Probe intensities were corrected, normalized, and summarized by the Lumi package of Bioconductor (Du et al., 2008). Differentially expressed genes were identified by the LIMMA package of Bioconductor (Wettenhall and Smyth, 2004). Gene set enrichment analysis (GSEA) was performed using the Bioconductor GOstats package (Falcon and Gentleman, 2007).
substance,measurement,setting,value
"DUX4-fl: full-length DUX4 protein (SEQ ID NO:110), expressed from lentiviral or pCS2 vectors or in vitro translated",fc of MYPOP (expression array),Refseq NM_001012643.2,−1.053
same,PRAMEF5 expression fc,Refseq NM_001013407.1,7.35
same,HNRNPCL1 expression fc,Refseq NM_001013631.1,3.484
same,RFPL4B expression fc,Refseq NM_001013734.2,8.34
same,ODF3B fc,Refseq NM_001014440.2,−1.1
same,DNAJC25 expression fc,Refseq NM_001015882.2,1.995
same,KCNK2 fc,Refseq NM_001017425.2,−1.154
same,CCDC58 expression fc,Refseq NM_001017928.2,2.001
same,fc of ATP6AP1L (expression array),Refseq NM_001017971.1,−1.049
same,SH3PXD2B fc,Refseq NM_001017995.1,−1.101
same,ZBTB16 expression fc,"Refseq NM_001018011.1, cultured human skeletal muscle",−2.037
same,fc of SERBP1 (expression array),Refseq NM_001018069.1,−0.241
same,SOD2 expression fc,"Refseq NM_001024466.1, cultured human skeletal muscle",−4.617
same,fc of RUNX2 (expression array),Refseq NM_001024630.2,−1.019
same,CLK1 expression fc,Refseq NM_001024646.1,1.84
same,fc of TGFBR2 (expression array),Refseq NM_001024847.1,−1.017
same,TSPAN4 fc,Refseq NM_001025235.1,−1.175
same,fc of RFX5 (expression array),Refseq NM_001025603.1,−1.052
same,PSRC1 fc,Refseq NM_001032290.1,−1.126
same,OAS1 expression fc,"Refseq NM_001032409.1, cultured human skeletal muscle",−4.607
same,ENTPD8 expression fc,Refseq NM_001033113.1,4.073
same,RHOT1 fc,Refseq NM_001033566.1,−1.074
same,CYFIP2 fc,Refseq NM_001037333.1,−1.081
same,fc of PHYH (expression array),Refseq NM_001037537.1,−1.007
same,fc of EFEMP1 (expression array),Refseq NM_001039348.1,−1.03
same,PRAMEF10 expression fc,Refseq NM_001039361.1,6.064
same,ETNK1 expression fc,Refseq NM_001039481.1,1.892
same,LOC440053 expression fc,Refseq NM_001039615.1,3.919
same,CBLN3 fc,Refseq NM_001039771.2,−1.144
same,HEY1 expression fc,Refseq NM_001040708.1,2.18
same,fc of UHRF1 (expression array),Refseq NM_001048201.1,−0.2091
same,DBNDD2 expression fc,Refseq NM_001048223.1,2.987
same,NCOR2 fc,Refseq NM_001077261.1,−1.177
same,fc of NFKB2 (expression array),Refseq NM_001077493.1,−1.011
same,fc of SLC29A1 (expression array),Refseq NM_001078174.1,−0.5111
same,DYNC2H1 expression fc,Refseq NM_001080463.1,3.721
same,PRAMEF12 expression fc,Refseq NM_001080830.1,7.802
same,FRG2B expression fc,Refseq NM_001080998.1,1.993
same,DEFB103A expression fc,Refseq NM_001081551.2,6.442
same,CPSF4 fc,Refseq NM_001081559.1,−1.171
same,fc of GPD2 (expression array),Refseq NM_001083112.1,−0.3652
same,fc of GPR1 (expression array),Refseq NM_001098199.1,−1.054
same,HLA-F expression fc,"Refseq NM_001098479.1, cultured human skeletal muscle",−1.932
same,RFPL3 expression fc,Refseq NM_001098535.1,8.144
same,PRR4 expression fc,Refseq NM_001098538.1,3.562
same,FAM156B fc,Refseq NM_001099684.1,−1.113
same,PRAMEF19 expression fc,Refseq NM_001099790.1,2.336
same,PRAMEF20 expression fc,Refseq NM_001099852.1,4.795
same,PRAMEF14 expression fc,Refseq NM_001099854.1,3.186
same,PRAMEF21 expression fc,Refseq NM_001100114.1,2.487
same,LOC729384 expression fc,Refseq NM_001105522.1,6.832
same,KHDC1L expression fc,Refseq NM_001126063.2,8.012
same,CSAG3 expression fc,Refseq NM_001129826.1,5.871
same,LOC399940 expression fc,Refseq NM_001136118.1,4.727
same,LOC440563 expression fc,Refseq NM_001136561.1,5.312
same,FAM90A7 expression fc,Refseq NM_001136572.1,3.199
same,CYCSL1 expression fc,Refseq NR_001561.1,2.506
same,MGC10997 expression fc,Refseq NR_001565.1,2.426
same,FTHL3 expression fc,"Refseq NR_002201.1, cultured human skeletal muscle",−2.577
same,FTHL11 expression fc,"Refseq NR_002204.1, cultured human skeletal muscle",−2.085
same,FTHL12 expression fc,"Refseq NR_002205.1, cultured human skeletal muscle",−1.948
same,RPPH1 expression fc,Refseq NR_002312.1,2.037
same,RFPL1S expression fc,Refseq NR_002727.1,8.396
same,SNORD56 expression fc,Refseq NR_002739.1,1.855
same,fc of TRIM78P (expression array),Refseq NR_002777.2,−0.9991
same,HNRPA1L-2 expression fc,Refseq NR_002944.2,1.921
same,RMRP expression fc,Refseq NR_003051.2,2.267
same,fc of LOC400759 (expression array),Refseq NR_003133.1,−0.7622
same,HNRPDL expression fc,Refseq NR_003249.1,2.175
same,SDHALP1 expression fc,Refseq NR_003264.1,3.276
same,RN5S9 expression fc,Refseq NR_023371.1,4.191
same,KIAA0114 expression fc,Refseq NR_024031.1,1.841
same,NCRNA00092 expression fc,Refseq NR_024129.1,2.395
same,MIR503 expression fc,Refseq NR_030228.1,1.91
same,MIR2278 expression fc,Refseq NR_031755.1,2.412
same,USP41 fc,Refseq XM_036729.5,−1.127
same,TRIM64 expression fc,Refseq XM_061890.11,4.943
same,LOC136157 expression fc,Refseq XM_069743.3,8.299
same,LOC196120 expression fc,Refseq XM_114987.3,8.179
same,LOC646066 expression fc,Refseq XM_116384.2,4.391
same,LOC284428 expression fc,Refseq XM_208203.5,8.023
same,LOC285697 expression fc,Refseq XM_210642.1,3.783
same,LOC342934 expression fc,Refseq XM_292724.5,2.988
same,LOC340096 expression fc,Refseq XM_293943.2,7.382
same,LOC389633 expression fc,Refseq XM_372030.4,1.807
same,LOC390031 expression fc,Refseq XM_372343.1,8.331
same,LOC390530 fc,Refseq XM_372543.2,−1.104
same,LOC391045 expression fc,Refseq XM_372780.3,2.166
same,LOC391092 expression fc,Refseq XM_372792.2,1.837
same,LOC391742 expression fc,Refseq XM_373056.1,5.733
same,LOC391747 expression fc,Refseq XM_373059.2,2.789
same,LOC391761 expression fc,Refseq XM_373073.2,3.009
same,LOC391764 expression fc,Refseq XM_373076.3,5.821
same,LOC391766 expression fc,Refseq XM_373077.2,5.724
same,LOC391767 expression fc,Refseq XM_373078.1,5.492
same,LOC399937 expression fc,Refseq XM_374917.3,1.841
same,LOC399939 expression fc,Refseq XM_374919.3,6.931
same,LOC401860 expression fc,Refseq XM_377445.3,4.272
same,LOC402199 expression fc,Refseq XM_377875.2,4.392
same,LOC646103 expression fc,Refseq XM_377879.3,4.658
same,LOC402207 expression fc,Refseq XM_377884.2,4.903
same,LOC440040 expression fc,Refseq XM_495873.4,7.534
same,FAM90A9 expression fc,Refseq XM_496956.4,2.248
same,FAM90A12 expression fc,Refseq XM_496961.3,1.774
same,LOC441584 expression fc,Refseq XM_497258.1,7.781
same,LOC441019 expression fc,"Refseq XM_498969.2, cultured human skeletal muscle",−2.107
same,PEG10 expression fc,Refseq XM_499343.2,1.935
same,LOC642362 expression fc,Refseq XM_925891.1,8.016
same,LOC642538 expression fc,Refseq XM_926027.2,1.792
same,LOC653111 expression fc,Refseq XM_926073.2,3.139
same,LOC642843 expression fc,Refseq XM_926241.2,2.728
same,LOC653192 expression fc,Refseq XM_926437.2,8.228
same,LOC653194 expression fc,Refseq XM_926449.1,3.633
same,LOC643731 expression fc,Refseq XM_927019.1,1.903
same,LOC653506 fc,Refseq XM_927769.1,−1.144
same,LOC645137 expression fc,Refseq XM_928167.2,2.323
same,fc of LOC653583 (expression array),Refseq XM_928224.2,−1.02
same,LOC645373 expression fc,Refseq XM_928412.1,2.891
same,LOC645558 expression fc,Refseq XM_928577.2,4.803
same,LOC645669 expression fc,Refseq XM_928680.1,8.202
same,LOC653656 expression fc,Refseq XM_928688.3,7.897
same,LOC653657 expression fc,Refseq XM_928697.2,7.857
same,LOC646698 expression fc,Refseq XM_929644.2,6.012
same,LOC646754 expression fc,Refseq XM_929704.2,5.11
same,LOC646914 expression fc,Refseq XM_929877.1,2.569
same,fc of LOC338758 (expression array),Refseq XM_931359.2,−1.005
same,LOC644739 fc,Refseq XM_933679.1,−1.165
same,LOC642127 expression fc,Refseq XM_936272.2,6.112
same,LOC642219 expression fc,Refseq XM_936370.2,4.799
same,LOC285299 expression fc,Refseq XM_936463.2,2.84
same,fc of BEXL1 (expression array),Refseq XM_936467.2,−1.018
same,LOC653978 expression fc,Refseq XM_937424.1,3.554
same,LOC646508 expression fc,Refseq XM_937570.1,2.498
same,LOC648533 expression fc,Refseq XM_937587.1,2.284
same,LOC342933 expression fc,Refseq XM_938208.2,3.752
same,PRAMEF17 expression fc,Refseq XM_938420.2,4.223
same,fc of LOC649425 (expression array),Refseq XM_938508.1,−0.2065
same,LOC649563 expression fc,Refseq XM_938635.2,2.425
same,LOC650167 expression fc,Refseq XM_939249.1,3.363
same,LOC654101 expression fc,Refseq XM_939354.1,5.034
same,MGC61598 expression fc,Refseq XM_939432.1,2.969
same,LOC651308 expression fc,Refseq XM_940443.1,8.169
same,ZC3H5 fc,Refseq XM_940903.2,−1.155
same,LOC651816 expression fc,Refseq XM_941060.1,1.836
same,LOC652080 expression fc,Refseq XM_941404.1,1.987
same,LOC652349 expression fc,Refseq XM_941777.1,2.835
same,LOC652433 expression fc,Refseq XM_941875.1,3.022
same,LOC651390 expression fc,Refseq XM_942401.1,1.937
same,LOC727846 expression fc,Refseq XM_001126140.1,2.175
same,LOC730278 fc,Refseq XM_001126471.1,−1.092
same,PARP10 expression fc,"Refseq XM_001127571.1, cultured human skeletal muscle",−2.064
same,fc of LOC730996 (expression array),Refseq XM_001128017.1,−0.2204
same,LOC342900 expression fc,Refseq XM_001129035.1,7.391
same,LOC729368 expression fc,Refseq XM_001130065.2,5.416
same,LOC729458 expression fc,Refseq XM_001130308.2,8.247
same,LOC729694 expression fc,Refseq XM_001131061.1,4.029
same,LOC729698 expression fc,Refseq XM_001131072.1,3.539
same,LOC729700 expression fc,Refseq XM_001131081.1,4.817
same,LOC729706 expression fc,Refseq XM_001131091.1,4.227
same,LOC729724 expression fc,Refseq XM_001131132.1,3.038
same,LOC729731 expression fc,Refseq XM_001131140.1,5.007
